Consider eleven compounds from US8236772B2, “Methods of modulating angiogenesis and screening compounds for activity in modulating angiogenesis” (The Board of Trustees of the Leland Stanford Junior …, priority 2005, dated 2012).

Data set [1] relates to human microvascular endothelial cell (HMVEC) migration. The data set can be described thus: Cell migration assay (wounding) on HMVEC. It counts as cell-based. The settings on record: for effect of siRNA on growth factor induced endothelial cell migration: 96 hours after transfection, FIG. 7; for HMVEC migration after siRNA transfection: in the absence of added growth factors, vs vehicle control, FIG. 6B.

For data set [2], the system named is thioredoxin activity in human microvascular endothelial cells. In words: Thioredoxin bioassay (colorimetric, DTNB) on HMVEC protein extracts. The note with it: for thioredoxin activity after siRNA transfection: in the absence of the stimuli, vs vehicle control, FIG. 6A. It counts as cell-based. How it is done:
Thioredoxin Bioassay. Thioredoxin was assayed based upon previously published colorimetric protocols. Wang et al. (2002) J. Biol Chem. 277:26496-26500. The level of thioredoxin activity is assessed at […] via the […] of a colorimetric substrate DTNB (5,5′-dithiobis(2-nitrobenzoic acid)). Protein extracts were obtained by subjecting cells to a lysis buffer (20 mM HEPES (pH 7.9), 300 mM NaCl, 100 mM KCl, 10 mM EDTA, 0.1% Nonidet P-40, PMSF protease inhibitors).
Double-stranded siRNA were transfected into cells (Lipofectamine2000 reagent, Invitrogen). 24 hours after transfection, HMVEC migration experiments were performed, in the presence of vehicle or stimuli. Cell migration and thioredoxin activity were assayed as described above.

Data set [3] concerns human microvascular endothelial cell (HMVECs).
Excerpt: To further investigate the effects of nAChR-dependent pathways on EC migration, the effect of the nAChR antagonist, hexamethonium, on EC migration induced by nicotine, VEGF and bFGF was studied.
The subject of the next data set is HMVECs. In words: cDNA microarray analysis of HMVECs. It counts as cell-based, human. The protocol: Microarray Analyses. HMVECs were grown to 50-70% confluency. Subconfluent rather than confluent HMVEC cultures were studied because they more closely resemble conditions associated with cell migration in vivo, and because this condition is associated with increased EC expression of α7-nAChRs. Heeschen et al. (2002) J. Clin. Invest. 110:527-536. The concentration of the FBS in the media was then reduced to 1% so as to render the endothelial cells quiescent. After 24 hours, nicotine (10^−8M), VEGF (10 ng/ml) or bFGF (10 ng/ml) was added. Total RNA was then harvested at 24 hours. Five separate experiments per condition were processed for cDNA microarray analysis. Fluorescently labeled cDNAs (stimulated HMVECs versus vehicle-treated HMVECs at 24 hours post incubation) were hybridized on cDNA microarrays containing 39711 nonredundant cDNA clones, representing 26,260 unique UniGene clusters (SFGF, Stanford, Calif.). Eisen et al. (1998) Proc Natl Acad Sci USA 95:14863-14868. Scanning of processed microarray slides was performed using a GenePix400A scanner and images analysed with GENEPIX PRO software (Axon Instruments, Foster City, Calif.). Microarray data were stored in the Stanford Microarray Database (Stanford, Calif.). Spots with signal less than 2.5-fold above background were removed in both channels and/or a regression correlation of less than 0.6. Genes with less than 80% evaluable data were excluded and the remaining data was then normalized. The significance of microarrays (SAM) algorithm was used with a one-class design to identify genes differentially expressed by treatment with each stimuli at each timepoint. Tusher et al. (2001) Proc Natl Acad Sci USA. 98:5116-5121. Delta values giving approximately 5% false discovery were chosen. To analyze convergent gene expression profiles, all differentially expressed genes at 24 hours were hierarchically clustered by gene and by array (Cluster software, version 2.11), and the results analysed with Treeview software (version 1.6). Eisen et al. (1998) supra.

[4] abbreviates: vs vehicle, nicotine 10^−8M to 10^−4M, VEGF or bFGF 1-10 ng/ml, FIG. 1, 2A, 5B.
The mark [5] stands for this setting: HMVEC, 24 h, effect stronger for bFGF than for nicotine or VEGF, FIG. 3B Panel D.
[6] abbreviates: HMVEC, vs vehicle, nicotine 10^−8M, VEGF 10 ng/ml, bFGF 10 ng/ml, hexamethonium 10^−4M, FIG. 4, 5A.

“Also recorded” adds a separate entry of the source. Like-named read-outs stand apart in the source and are kept apart here.

In the case of `C[N+](C)(C)CCCCCC[N+](C)(C)C` [hexamethonium, hexamethonium bromide], in data set [1], the “effect on growth factor (VEGF or bFGF)-induced EC migration” value was “significantly attenuated” and the “effect on nicotine-induced EC migration” value is “abrogated; also recorded: abolished”. In addition, in data set [2], the “effect on nicotine-, VEGF- or bFGF-induced thioredoxin activity” value is “inhibited” and the “thioredoxin activity, agent alone” value was “no significant effect”. In addition, the “cell death (cellular toxicity)” value in data set [3] (antagonist alone, MTT assay) is “did not induce cell death”.

As to α-bungarotoxin, the “effect on nicotine-induced EC migration” value in data set [1] is given as “abolished”.

For the compound “siRNA directed against P4HA: Double-stranded siRNA to P4HA1: sense GGAUUUGUUGGGCAUCCAGtt (SEQ ID NO: 11), antisense CUGGAUGCCCAACAAAUCCtt (SEQ ID NO: 12) (sense GGAUUUGUUGGGCAUCCAGTT; antisense CUGGAUGCCCAACAAAUCCTT; lower-case overhang letters stated to be dideoxynucleotides, upper case undefined, further chemistry not given here)”, in data set [1] (HMVEC), the “effect of siRNA on growth factor induced endothelial cell migration” value (from here on “effect of siRNA”) is “inhibited”.

Turning to `CNC1(C)C2CCC(C2)C1(C)C` (stereo not shown) [mecamylamine], the “cell death (cellular toxicity)” value in data set [3] is “did not induce cell death”.

As to `CN1CCC[C@H]1c1cccnc1` [nicotine, S-3-(1-methyl-2-pyrrolidinyl)pyridine, reference compound], in data set [1] (HMVEC, dose range 10^−8M to 10^−4M, FIG. 2A), the “concentration of maximal stimulation of EC migration” value is recorded as 10^−8 M. In addition, the “EC (HMVEC) migration, stimulus alone” value in data set [1] (setting [4]) is given as “greater migratory activity; also recorded: induced human microvascular endothelial cell (HMVEC) migration in a dose-dependent fashion”; in data set [1] (vs vehicle, nicotine 10^−8M to 10^−4M, VEGF or bFGF 1-10 ng/ml, FIG. 1, 2A, 5B, listed as Nicotine), “stimulated EC migration in a dose-dependent manner”. For the same compound, in the data set with HMVECs (setting [5]), the “expression of the VEGF receptor FLT1” value is “induced activation”. The “thioredoxin activity, agent alone” value in data set [2] (setting [6]) is on record as “induced HMVEC thioredoxin activity significantly above vehicle; also recorded: increased”; in data set [2] (HMVEC, vs vehicle, nicotine 10^−8M, VEGF 10 ng/ml, bFGF 10 ng/ml, hexamethonium 10^−4M, FIG. 4, 5A, listed as Nicotine) it was “increased”.

Consider VEGF, for which, in data set [1], the “EC (HMVEC) migration, stimulus alone” value was “induced EC migration” and the “concentration of maximal effects on EC migration” value came to 10 ng/mL. Besides, in the data set with HMVECs, the “Fold Change CHRM5 (Cholinergic muscarinic receptor 5)” value was 2.0, the “Fold Change CHRNA3 (Nicotinic receptor alpha polypeptide 3)” value turned out to be 1.7, the “Fold Change CHRNA10 (Nicotinic receptor alpha polypeptide 10)” value is 2.0 and the “Fold Change CHRNB2 (Nicotinic receptor beta polypeptide 2)” value amounted to 6.9. For the same compound, in the data set with HMVECs, the “Fold Change CHRNB3 (Nicotinic receptor beta polypeptide 3)” value worked out at 2.2 and the “expression of the VEGF receptor FLT1” value is “induced activation”. Also, the “thioredoxin activity, agent alone” value in data set [2] was “induced HMVEC thioredoxin activity significantly above vehicle; also recorded: increased”.

For the compound “siRNA directed against ARHGEF: Double-stranded siRNA to ARHGEF7: sense GCCUGUGUCUCCCAAAUCAtt (SEQ ID NO: 5), antisense UGAUUUGGGAGACACAGGCtt (SEQ ID NO: 6) (sense GCCUGUGUCUCCCAAAUCATT; antisense UGAUUUGGGAGACACAGGCTT; lower-case overhang letters stated to be dideoxynucleotides, upper case undefined, further chemistry not given here)”, in data set [1] (HMVEC), the “effect of siRNA” value is “inhibited”.

With “bFGF: human bFGF purchased from R&D Systems; angiogenic growth factor”, the “concentration of maximal effects on EC migration” value in data set [1] (HMVEC, range 1-10 ng/ml) came to 10 ng/mL. Moreover, the “EC (HMVEC) migration, stimulus alone” value in data set [1] (setting [4]) is “induced EC migration”. Moreover, the “expression of the VEGF receptor FLT1” value in the data set with HMVECs (setting [5]) was “induced activation”. Also, the “thioredoxin activity, agent alone” value in data set [2] (setting [6]) was “less robust (P=0.02 vs. vehicle) but significant increase; also recorded: increased”.

For “scrambled siRNA: Scrambled (randomly arranged) RNAi GUUGGCCAUUCUACUUCGCTTdtt (SEQ ID NO:17) used as negative control (GUUGGCCAUUCUACUUCGCTTDTT; dTdT overhang, further chemistry not given here)”, the “effect of siRNA” value in data set [1] (HMVEC) was “no effect”. Also, the “HMVEC migration after siRNA transfection” value in data set [1] is listed as “no effect”. Besides, the “thioredoxin activity after siRNA transfection” value in data set [2] (HMVEC) is “no effect”.

With “siRNA against TXNIP: Double-stranded siRNA to TXNIP: sense ACAGACUUCGGAGUACCUGtt (SEQ ID NO: 14), antisense CAGGUACUCCGAAGUCUGUtt (SEQ ID NO: 15) (sense ACAGACUUCGGAGUACCUGTT; antisense CAGGUACUCCGAAGUCUGUTT; lower-case overhang letters stated to be dideoxynucleotides, upper case undefined, further chemistry not given here)”, the “HMVEC migration after siRNA transfection” value in data set [1] is on record as “strongly stimulated; also recorded: significantly increased”. The “thioredoxin activity after siRNA transfection” value in data set [2] (HMVEC) is listed as “significantly stimulated; also recorded: significantly increased”.

As to “siRNA directed against Rin2: Double-stranded siRNA to Rin2: sense CUGAAACAGGAGAUGGUGCtt (SEQ ID NO: 8), antisense GCACCAUCUCCUGUUUCAGtt (SEQ ID NO: 9) (sense CUGAAACAGGAGAUGGUGCTT; antisense GCACCAUCUCCUGUUUCAGTT; lower-case overhang letters stated to be dideoxynucleotides, upper case undefined, further chemistry not given here)”, in data set [1] (HMVEC), the “effect of siRNA” value was “inhibited”.
